From BigSolDB 2.1

CONC(=O)Nc1ccc(-c2sc3c(c2CN(C)C)c(=O)n(-c2ccc(OC)nn2)c(=O)n3Cc2c(F)cccc2F)cc1
solubility (mole fraction)
Details	298.15 K	303.15 K	308.15 K	313.15 K	318.15 K	323.15 K
in acetonitrile	0.000483	0.000585	0.000667	0.000752	0.000856	0.000999
in ethanol	0.000134	0.000152	0.000171	0.000209	0.00025	0.000301
in ethyl acetate	0.000368	0.0004	0.00045	0.000505	0.000539	0.000576
in isopropanol	6.6e-05	8.3e-05	0.000103	0.000125	0.000153	0.000191
in methanol	0.000438	0.00051	0.000578	0.000639	0.000713	0.000774
